Source: the Kinase Knowledgebase extract (Sharma et al. 2016)

Target: EGFR (UniProt P00533)
Sequence (P00533 whole entry, looked up): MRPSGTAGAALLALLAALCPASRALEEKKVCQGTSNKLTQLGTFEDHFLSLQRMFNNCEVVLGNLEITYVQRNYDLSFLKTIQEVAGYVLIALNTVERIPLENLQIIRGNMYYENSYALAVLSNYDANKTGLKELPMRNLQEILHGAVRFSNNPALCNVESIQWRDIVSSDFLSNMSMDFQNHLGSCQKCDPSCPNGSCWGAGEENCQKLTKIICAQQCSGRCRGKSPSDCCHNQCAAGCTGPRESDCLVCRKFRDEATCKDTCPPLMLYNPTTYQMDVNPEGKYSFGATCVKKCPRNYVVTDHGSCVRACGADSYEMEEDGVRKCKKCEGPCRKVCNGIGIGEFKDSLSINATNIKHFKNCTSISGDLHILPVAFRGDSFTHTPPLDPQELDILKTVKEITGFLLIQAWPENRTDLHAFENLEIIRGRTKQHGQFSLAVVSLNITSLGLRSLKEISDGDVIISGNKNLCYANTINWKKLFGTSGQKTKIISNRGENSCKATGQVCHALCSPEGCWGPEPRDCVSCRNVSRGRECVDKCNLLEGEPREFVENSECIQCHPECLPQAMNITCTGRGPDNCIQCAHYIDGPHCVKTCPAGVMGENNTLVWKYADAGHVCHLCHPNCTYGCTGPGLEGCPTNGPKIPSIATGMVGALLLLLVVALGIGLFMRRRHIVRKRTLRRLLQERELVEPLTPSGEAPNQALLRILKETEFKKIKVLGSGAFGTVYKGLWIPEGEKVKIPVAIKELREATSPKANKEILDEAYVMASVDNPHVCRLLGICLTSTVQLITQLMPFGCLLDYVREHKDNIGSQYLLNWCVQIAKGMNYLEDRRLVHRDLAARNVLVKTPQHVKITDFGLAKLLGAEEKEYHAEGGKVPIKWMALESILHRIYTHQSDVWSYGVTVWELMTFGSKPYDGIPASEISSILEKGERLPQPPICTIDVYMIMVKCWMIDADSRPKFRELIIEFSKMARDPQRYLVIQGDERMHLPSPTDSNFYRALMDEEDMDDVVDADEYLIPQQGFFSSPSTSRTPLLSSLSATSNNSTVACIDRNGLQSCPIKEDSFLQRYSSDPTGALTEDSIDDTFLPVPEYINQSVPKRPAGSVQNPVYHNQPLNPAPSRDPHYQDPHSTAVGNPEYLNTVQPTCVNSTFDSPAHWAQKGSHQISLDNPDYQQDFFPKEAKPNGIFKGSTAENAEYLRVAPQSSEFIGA

IC50 [nM] | Compound
≤ 1000 | COc1ccc(OC)c(S(=O)(=O)Nc2ncnc3cc(OCCN4CCOCC4)c(OC)cc23)c1
≤ 1000 | COc1cc2c(NS(=O)(=O)c3cccc(Cl)c3)ncnc2cc1OCCN1CCOCC1
≤ 1000 | COc1cc2c(NS(=O)(=O)c3ccc(Cl)cc3)ncnc2cc1OCCCN(C)C
≤ 1000 | COc1cc2c(NS(=O)(=O)c3ccccc3C)ncnc2cc1OCCN1CCN(C)CC1
≤ 1000 | CCN(CC)CCOc1cc2ncnc(NS(=O)(=O)c3ccc(Sc4cccs4)s3)c2cc1OC
≤ 1000 | COc1cc2c(NS(=O)(=O)c3ccccc3Cl)ncnc2cc1OCCN1CCN(C)CC1
≤ 1000 | COc1cc2c(NS(=O)(=O)c3cccc(Br)c3)ncnc2cc1OC1CCN(C)CC1
≤ 1000 | COc1cc2c(NS(=O)(=O)c3cccc4cccnc34)ncnc2cc1OCCCN1CCOCC1
≤ 1000 | COc1cc2c(NS(=O)(=O)c3ccc(Br)cc3)ncnc2cc1OCCN1CCOCC1
≤ 1000 | CCN(CC)CCOc1cc2ncnc(NS(=O)(=O)c3ccc(C)cc3)c2cc1OC
≤ 1000 | CCN(CC)CCOc1cc2ncnc(NS(=O)(=O)c3c(C)cc(C)cc3C)c2cc1OC
≤ 1000 | COc1cc2c(NS(=O)(=O)c3ccccc3C)ncnc2cc1OC1CCN(C)CC1
≤ 1000 | COc1cc2c(NS(=O)(=O)c3ccc(Cl)s3)ncnc2cc1OC1CCN(C)CC1
≤ 1000 | COc1cc2c(NS(=O)(=O)c3cccc4cccnc34)ncnc2cc1OC1CCN(C)CC1
≤ 1000 | CCN(CC)CCOc1cc2ncnc(NS(=O)(=O)c3ccccc3)c2cc1OC
≤ 1000 | COc1cc2c(NS(C)(=O)=O)ncnc2cc1OC1CCN(C)CC1
≤ 1000 | COc1cc2c(NS(=O)(=O)c3ccccc3Cl)ncnc2cc1OCCN1CCCCC1
≤ 1000 | COc1cc2c(NS(=O)(=O)c3ccc(C)cc3)ncnc2cc1OCCN1CCOCC1
≤ 1000 | COc1cc2c(NS(=O)(=O)c3ccccc3Cl)ncnc2cc1OC1CCN(C)CC1
≤ 1000 | COc1cc2c(NS(=O)(=O)Cc3ccccc3)ncnc2cc1OCCCN(C)C
≤ 1000 | COc1cc2c(NS(=O)(=O)c3ccc(Br)cc3)ncnc2cc1OCCN1CCN(C)CC1
≤ 1000 | COc1cc2c(NS(=O)(=O)c3ccc(C)cc3)ncnc2cc1OC1CCN(C)CC1
≤ 1000 | COc1cc2c(NS(=O)(=O)c3cn(C)cn3)ncnc2cc1OCCN1CCCCC1
≤ 1000 | COc1cc2c(NS(=O)(=O)c3ccc(Sc4cccs4)s3)ncnc2cc1OCCCN(C)C
≤ 1000 | COc1cc2c(NS(=O)(=O)c3ccc(Cl)cc3)ncnc2cc1OCCN1CCN(C)CC1

IC50 [nM] | Compound
≤ 1000 | COc1cc2c(NS(=O)(=O)c3cccc(Br)c3)ncnc2cc1OCCN1CCCCC1
≤ 1000 | COc1cc2c(NS(=O)(=O)c3cccc(Cl)c3Cl)ncnc2cc1OCCCN(C)C
≤ 1000 | COc1cc2c(NS(=O)(=O)c3cccc(Cl)c3)ncnc2cc1OCCN1CCN(C)CC1
≤ 1000 | COc1cc2c(NS(=O)(=O)c3c(C)cc(C)cc3C)ncnc2cc1OCCN1CCCCC1
≤ 1000 | COc1cc2c(NS(=O)(=O)c3cccc(Br)c3)ncnc2cc1OCCN1CCN(C)CC1
≤ 1000 | COc1cc2c(NS(=O)(=O)c3cn(C)cn3)ncnc2cc1OCCN1CCOCC1
≤ 1000 | COc1ccc(OC)c(S(=O)(=O)Nc2ncnc3cc(OCCN4CCN(C)CC4)c(OC)cc23)c1
≤ 1000 | COc1cc2c(NS(=O)(=O)c3ccc4ccccc4c3)ncnc2cc1OCCN1CCOCC1
≤ 1000 | CCN(CC)CCOc1cc2ncnc(NS(=O)(=O)c3ccc(C(C)(C)C)cc3)c2cc1OC
≤ 1000 | COc1cc2c(NS(=O)(=O)c3ccccc3)ncnc2cc1OCCCN(C)C
≤ 1000 | COc1ccc(S(=O)(=O)Nc2ncnc3cc(OC4CCN(C)CC4)c(OC)cc23)cc1OC
≤ 1000 | COc1cc2c(NS(=O)(=O)c3ccc(C)cc3)ncnc2cc1OCCN1CCN(C)CC1
≤ 1000 | COc1cc2c(NS(=O)(=O)c3cccc4cccnc34)ncnc2cc1OCCN1CCCCC1
≤ 1000 | CCN(CC)CCOc1cc2ncnc(NS(=O)(=O)c3ccc(OC)cc3)c2cc1OC
≤ 1000 | COc1cc2c(NS(=O)(=O)c3ccc4ccccc4c3)ncnc2cc1OCCN1CCN(C)CC1
≤ 1000 | COc1cc2c(NS(=O)(=O)c3cccc(Cl)c3)ncnc2cc1OCCCN1CCOCC1
≤ 1000 | COc1cc2c(NS(=O)(=O)c3ccc(F)cc3)ncnc2cc1OCCN1CCCCC1
≤ 1000 | COc1cc2c(NS(=O)(=O)c3ccc(F)cc3)ncnc2cc1OCCCN1CCOCC1
≤ 1000 | COc1cc2c(NS(=O)(=O)c3ccc(OC(F)(F)F)cc3)ncnc2cc1OC1CCN(C)CC1
≤ 1000 | CCN(CC)CCOc1cc2ncnc(NS(=O)(=O)c3ccccc3C)c2cc1OC
≤ 1000 | COc1cc2c(NS(=O)(=O)c3cccc(Cl)c3)ncnc2cc1OCCCN(C)C
≤ 1000 | COc1cc2c(NS(=O)(=O)c3cccc(Br)c3)ncnc2cc1OCCCN(C)C
≤ 1000 | COc1cc2c(NS(=O)(=O)c3ccc4ccccc4c3)ncnc2cc1OC1CCN(C)CC1
≤ 1000 | COc1cc2c(NS(=O)(=O)c3cccc(Cl)c3)ncnc2cc1OC1CCN(C)CC1
≤ 1000 | COc1cc2c(NS(=O)(=O)c3ccccc3C)ncnc2cc1OCCCN1CCOCC1
